Data taken from ChEMBL document CHEMBL3885881, “DrugMatrix”.

Species on record: Rattus norvegicus
Test: DrugMatrix - Regimen: Daily Repeat
Type: toxicity, organism-based, Sprague-Dawley
Parameters: regimen Daily Repeat, gender Male, age 6-8 weeks
Conditions: in vivo, po, route oral GAVAGE, vehicle 100 % SALINE; for ABSOLUTE BASOPHIL / ABSOLUTE EOSINOPHIL / ABSOLUTE LYMPHOCYTE / ABSOLUTE MONOCYTE / ABSOLUTE SEGMENTED NEUTROPHIL / BASOPHIL / EOSINOPHIL / ERYTHROCYTE COUNT / HEMATOCRIT / HEMOGLOBIN / LEUKOCYTE COUNT / LYMPHOCYTE / MEAN CORPUSCULAR HEMOGLOBIN / MEAN CORPUSCULAR HEMOGLOBIN CONCENTRATION / MEAN CORPUSCULAR VOLUME / MONOCYTE / NEUTROPHIL / NUCLEATED RED BLOOD CELLS / PLATELET COUNT: tissue Blood; for ALANINE AMINOTRANSFERASE / ALBUMIN / ALKALINE PHOSPHATASE / ASPARTATE AMINOTRANSFERASE / BLOOD UREA NITROGEN / CARBON DIOXIDE / CHLORIDE / CHOLESTEROL / CREATINE PHOSPHOKINASE / CREATININE / GLUCOSE / LACTATE DEHYDROGENASE / LIPASE / PHOSPHORUS / POTASSIUM / SODIUM / TOTAL BILIRUBIN / TOTAL PROTEIN / URIC ACID: tissue Plasma
[1] = 0 mg/kg, 72 h, dose level Control, time 3 day
[2] = 0 mg/kg, 120 h, dose level Control, time 5 day
[3] = 34 mg/kg, 72 h, dose level High, time 3 day
[4] = 34 mg/kg, 120 h, dose level High, time 5 day

CCN(CC)N=O [N-NITROSODIETHYLAMINE]
ABSOLUTE BASOPHIL [1]: 0 CELLS/uL
ABSOLUTE EOSINOPHIL [1]: 0 CELLS/uL
ABSOLUTE LYMPHOCYTE [1]: 8960.83 CELLS/uL
ABSOLUTE MONOCYTE [1]: 103.5 CELLS/uL
ABSOLUTE SEGMENTED NEUTROPHIL [1]: 635.67 CELLS/uL
BASOPHIL [1]: 0%
EOSINOPHIL [1]: 0%
ERYTHROCYTE COUNT [1]: 5.09 x10E6/uL
HEMATOCRIT [1]: 31.8%
HEMOGLOBIN [1]: 12.42 G/DL
LEUKOCYTE COUNT [1]: 9.7 x10E3/uL
LYMPHOCYTE [1]: 92.33%
MEAN CORPUSCULAR HEMOGLOBIN [1]: 24.4 pg
MEAN CORPUSCULAR HEMOGLOBIN CONCENTRATION [1]: 39.07 G/DL
MEAN CORPUSCULAR VOLUME [1]: 62.47 fL
MONOCYTE [1]: 1%
NEUTROPHIL [1]: 6.67%
NUCLEATED RED BLOOD CELLS [1]: 0 /100WBC
PLATELET COUNT [1]: 466.5 x10E3/uL
ALANINE AMINOTRANSFERASE [1]: 83.33 u/L
ALBUMIN [1]: 4.33 G/DL
ALKALINE PHOSPHATASE [1]: 340.5 u/L
ASPARTATE AMINOTRANSFERASE [1]: 189.83 u/L
BLOOD UREA NITROGEN [1]: 15.83 mg/dL
CARBON DIOXIDE [1]: 38 mmol/L
CHLORIDE [1]: 96.83 MEQ/L
CHOLESTEROL [1]: 72.5 mg/dL
CREATINE PHOSPHOKINASE [1]: 370.67 u/L
CREATININE [1]: 0.28 mg/dL
GLUCOSE [1]: 182.83 mg/dL
LACTATE DEHYDROGENASE [1]: 513.5 u/L
LIPASE [1]: 9.83 u/L
PHOSPHORUS [1]: 11.32 mg/dL
POTASSIUM [1]: 6.32 MEQ/L
SODIUM [1]: 145.12 MEQ/L
TOTAL BILIRUBIN [1]: 0.2 mg/dL
TOTAL PROTEIN [1]: 6.4 G/DL
URIC ACID [1]: 2.03 mg/dL
ABSOLUTE BASOPHIL [2]: 0 CELLS/uL
ABSOLUTE EOSINOPHIL [2]: 43.83 CELLS/uL
ABSOLUTE LYMPHOCYTE [2]: 7316.67 CELLS/uL
ABSOLUTE MONOCYTE [2]: 87.33 CELLS/uL
ABSOLUTE SEGMENTED NEUTROPHIL [2]: 418.83 CELLS/uL
BASOPHIL [2]: 0%
EOSINOPHIL [2]: 0.33%
ERYTHROCYTE COUNT [2]: 4.77 x10E6/uL
HEMATOCRIT [2]: 29.93%
HEMOGLOBIN [2]: 11.48 G/DL
LEUKOCYTE COUNT [2]: 7.87 x10E3/uL
LYMPHOCYTE [2]: 93.5%
MEAN CORPUSCULAR HEMOGLOBIN [2]: 24.17 pg
MEAN CORPUSCULAR HEMOGLOBIN CONCENTRATION [2]: 38.57 G/DL
MEAN CORPUSCULAR VOLUME [2]: 62.68 fL
MONOCYTE [2]: 1%
NEUTROPHIL [2]: 5.17%
NUCLEATED RED BLOOD CELLS [2]: 0 /100WBC
PLATELET COUNT [2]: 377.67 x10E3/uL
ALANINE AMINOTRANSFERASE [2]: 89 u/L
ALBUMIN [2]: 4.42 G/DL
ALKALINE PHOSPHATASE [2]: 275.17 u/L
ASPARTATE AMINOTRANSFERASE [2]: 204.17 u/L
BLOOD UREA NITROGEN [2]: 15.33 mg/dL
CARBON DIOXIDE [2]: 36.83 mmol/L
CHLORIDE [2]: 94.67 MEQ/L
CHOLESTEROL [2]: 92 mg/dL
CREATINE PHOSPHOKINASE [2]: 514.5 u/L
CREATININE [2]: 0.24 mg/dL
GLUCOSE [2]: 184.17 mg/dL
LACTATE DEHYDROGENASE [2]: 648.67 u/L
LIPASE [2]: 10 u/L
PHOSPHORUS [2]: 12.33 mg/dL
POTASSIUM [2]: 6.51 MEQ/L
SODIUM [2]: 144.63 MEQ/L
TOTAL BILIRUBIN [2]: 0.18 mg/dL
TOTAL PROTEIN [2]: 6.7 G/DL
URIC ACID [2]: 2.33 mg/dL
ABSOLUTE BASOPHIL [3]: 0 CELLS/uL
ABSOLUTE EOSINOPHIL [3]: 38.67 CELLS/uL
ABSOLUTE LYMPHOCYTE [3]: 8206.67 CELLS/uL
ABSOLUTE MONOCYTE [3]: 88.33 CELLS/uL
ABSOLUTE SEGMENTED NEUTROPHIL [3]: 499.67 CELLS/uL
BASOPHIL [3]: 0%
EOSINOPHIL [3]: 0.33%
ERYTHROCYTE COUNT [3]: 6.73 x10E6/uL
HEMATOCRIT [3]: 41.13%
HEMOGLOBIN [3]: 15.77 G/DL
LEUKOCYTE COUNT [3]: 8.83 x10E3/uL
LYMPHOCYTE [3]: 93.33%
MEAN CORPUSCULAR HEMOGLOBIN [3]: 23.47 pg
MEAN CORPUSCULAR HEMOGLOBIN CONCENTRATION [3]: 38.37 G/DL
MEAN CORPUSCULAR VOLUME [3]: 61.23 fL
MONOCYTE [3]: 1%
NEUTROPHIL [3]: 5.33%
NUCLEATED RED BLOOD CELLS [3]: 0 /100WBC
PLATELET COUNT [3]: 912.67 x10E3/uL
ALANINE AMINOTRANSFERASE [3]: 112.33 u/L
ALBUMIN [3]: 4.2 G/DL
ALKALINE PHOSPHATASE [3]: 292.67 u/L
ASPARTATE AMINOTRANSFERASE [3]: 218.67 u/L
BLOOD UREA NITROGEN [3]: 13 mg/dL
CARBON DIOXIDE [3]: 38.67 mmol/L
CHLORIDE [3]: 96.33 MEQ/L
CHOLESTEROL [3]: 79.33 mg/dL
CREATINE PHOSPHOKINASE [3]: 309.67 u/L
CREATININE [3]: 0.53 mg/dL
GLUCOSE [3]: 161.33 mg/dL
LACTATE DEHYDROGENASE [3]: 311 u/L
LIPASE [3]: 9.67 u/L
PHOSPHORUS [3]: 11.2 mg/dL
POTASSIUM [3]: 6.34 MEQ/L
SODIUM [3]: 146.93 MEQ/L
TOTAL BILIRUBIN [3]: 0.2 mg/dL
TOTAL PROTEIN [3]: 6.03 G/DL
URIC ACID [3]: 2.2 mg/dL
ABSOLUTE BASOPHIL [4]: 0 CELLS/uL
ABSOLUTE EOSINOPHIL [4]: 0 CELLS/uL
ABSOLUTE LYMPHOCYTE [4]: 7416.33 CELLS/uL
ABSOLUTE MONOCYTE [4]: 148.33 CELLS/uL
ABSOLUTE SEGMENTED NEUTROPHIL [4]: 435.33 CELLS/uL
BASOPHIL [4]: 0%
EOSINOPHIL [4]: 0%
ERYTHROCYTE COUNT [4]: 6.58 x10E6/uL
HEMATOCRIT [4]: 41.63%
HEMOGLOBIN [4]: 15.6 G/DL
LEUKOCYTE COUNT [4]: 8 x10E3/uL
LYMPHOCYTE [4]: 94%
MEAN CORPUSCULAR HEMOGLOBIN [4]: 23.7 pg
MEAN CORPUSCULAR HEMOGLOBIN CONCENTRATION [4]: 37.47 G/DL
MEAN CORPUSCULAR VOLUME [4]: 63.27 fL
MONOCYTE [4]: 1.67%
NEUTROPHIL [4]: 4.33%
NUCLEATED RED BLOOD CELLS [4]: 0 /100WBC
PLATELET COUNT [4]: 607 x10E3/uL
ALANINE AMINOTRANSFERASE [4]: 90.67 u/L
ALBUMIN [4]: 3.93 G/DL
ALKALINE PHOSPHATASE [4]: 310.33 u/L
ASPARTATE AMINOTRANSFERASE [4]: 148 u/L
BLOOD UREA NITROGEN [4]: 13 mg/dL
CARBON DIOXIDE [4]: 37 mmol/L
CHLORIDE [4]: 95.67 MEQ/L
CHOLESTEROL [4]: 85.67 mg/dL
CREATINE PHOSPHOKINASE [4]: 246 u/L
CREATININE [4]: 0.16 mg/dL
GLUCOSE [4]: 139.33 mg/dL
LACTATE DEHYDROGENASE [4]: 200 u/L
LIPASE [4]: 13 u/L
PHOSPHORUS [4]: 11.33 mg/dL
POTASSIUM [4]: 6.73 MEQ/L
SODIUM [4]: 144.83 MEQ/L
TOTAL BILIRUBIN [4]: 0.23 mg/dL
TOTAL PROTEIN [4]: 5.43 G/DL
URIC ACID [4]: 1.9 mg/dL
